The supplement of paper PMC6045584
± gives the standard deviation of the averaged measurements.

Tests used:
[1] = compound: T1, COc1cc2ncnc(Nc3ccc(F)c(Cl)c3)c2cc1OCCCN1CCOCC1 [GEFITINIB]; test: surviving fraction relative to DMSO-only wells; higher = less growth inhibition; conditions: exposure time: 5 days
In short: (§1)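 Continuous five-day exposure to inhibitors at 0.5, 1, 5, 10, 50, 100, 500 and 1000 nM started 24 hours after log-phase tumour cell lines were seeded at 250–500 cells per well in 384-well plates. Luminescence was read after 10 minutes at room temperature. Viability is given as surviving fraction, meaning CellTiter-Glo luminescence normalised to the median of DMSO-only wells.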

[2] = compound: T2, C[C@]1(O)C[C@@H](c2nc(-c3ccc4ccc(-c5ccccc5)nc4c3)c3c(N)nccn32)C1 [OSI-906]; test: as above; conditions: exposure time: 5 days
In short: as §1

[3] = compound: T3, Cc1ccc(-c2cc(C(F)(F)F)nn2-c2ccc(S(N)(=O)=O)cc2)cc1 [CELECOXIB]; test: as above; conditions: exposure time: 5 days
In short: as §1

[4] = compound: O=C(O)C1(C(=O)O)CCC1.[NH2-].[NH2-].[Pt+2] [CARBOPLATIN]; test: as above; conditions: exposure time: 5 days
In short: as §1

[5] = compound: CC(=O)NCC(=O)N1[C@@H]2CC[C@H]1c1ccc(Nc3ncc(C(F)(F)F)c(NC4CCC4)n3)cc12; test: area under dose-response curve of surviving fraction (unscaled, Aref=0) (surviving fraction x log10(nM)); higher = more resistant; conditions: exposure time: 5 days; dose range 0.5-1000 nM
In short: (§2)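 Tumour cell lines in 384-well plates were exposed for five days to eight inhibitor concentrations from 0.5 to 1000 nM. Viability was read by CellTiter-Glo luminescence, normalised to DMSO-only wells, in three screens per line. Dose-response survival curves were fitted to surviving fractions by 3-parameter logistic regression in the drc R package. Area under the curve is the unscaled activity area (Aref = 0) over log10 dose.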

[6] = compound: CC(=O)O[C@H]1C(=O)[C@@]2(C)[C@H]([C@H](OC(=O)c3ccccc3)[C@]3(O)C[C@H](OC(=O)[C@H](O)[C@@H](NC(=O)c4ccccc4)c4ccccc4)C(C)=C1C3(C)C)[C@]1(OC(C)=O)CO[C@@H]1C[C@@H]2O [PACLITAXEL]; test: as above; conditions: exposure time: 5 days; dose range 0.5-1000 nM
In short: as §2

[7] = compound: CC(=O)c1c(C)c2cnc(Nc3ccc(N4CCNCC4)cn3)nc2n(C2CCCC2)c1=O; test: as above; conditions: exposure time: 5 days; dose range 0.5-1000 nM
In short: as §2

[8] = compound: CC[C@@]1(O)C(=O)OCc2c1cc1n(c2=O)Cc2cc3ccccc3nc2-1 [CAMPTOTHECIN]; test: as above; conditions: exposure time: 5 days; dose range 0.5-1000 nM
In short: as §2

[9] = compound: COCC[n+]1c2c(n(Cc3cnccn3)c1C)C(=O)c1ccccc1C2=O [YM155]; test: as above; conditions: exposure time: 5 days; dose range 0.5-1000 nM
In short: as §2

[10] = compound: T1, GEFITINIB; test: as above; conditions: exposure time: 5 days; dose range 0.5-1000 nM
In short: as §2

[11] = compound: T2, OSI-906; test: as above; conditions: exposure time: 5 days; dose range 0.5-1000 nM
In short: as §2

[12] = compound: T3, CELECOXIB; test: as above; conditions: exposure time: 5 days; dose range 0.5-1000 nM
In short: as §2

LM7 BONE
surviving fraction ([1]; 0.5 nM): 0.988 ± 0.039
surviving fraction ([1]; 1 nM): 1.01 ± 0.034
surviving fraction ([1]; 5 nM): 1.1 ± 0.07
surviving fraction ([1]; 10 nM): 1.1 ± 0.036
surviving fraction ([1]; 50 nM): 1.12 ± 0.013
surviving fraction ([1]; 100 nM): 1.12 ± 0.1
surviving fraction ([1]; 500 nM): 0.963 ± 0.054
surviving fraction ([1]; 1000 nM): 0.825 ± 0.016
surviving fraction ([2]; 0.5 nM): 0.743 ± 0.037
surviving fraction ([2]; 1 nM): 0.717 ± 0.062
surviving fraction ([2]; 5 nM): 0.801 ± 0.074
surviving fraction ([2]; 10 nM): 0.747 ± 0.041
surviving fraction ([2]; 50 nM): 0.867 ± 0.011
surviving fraction ([2]; 100 nM): 0.771 ± 0.048
surviving fraction ([2]; 500 nM): 0.48 ± 0.023
surviving fraction ([2]; 1000 nM): 0.435 ± 0.025
surviving fraction ([3]; 0.5 nM): 0.979 ± 0.059
surviving fraction ([3]; 1 nM): 0.963 ± 0.023
surviving fraction ([3]; 5 nM): 1.06 ± 0.05
surviving fraction ([3]; 10 nM): 1.1 ± 0.086
surviving fraction ([3]; 50 nM): 1.04 ± 0.038
surviving fraction ([3]; 100 nM): 1.04 ± 0.023
surviving fraction ([3]; 500 nM): 0.944 ± 0.044
surviving fraction ([3]; 1000 nM): 1.02 ± 0.068
surviving fraction ([4]; 0.5 nM): 1.06 ± 0.017
surviving fraction ([4]; 1 nM): 1.07 ± 0.051
surviving fraction ([4]; 5 nM): 1.09 ± 0.076
surviving fraction ([4]; 10 nM): 1.05 ± 0.028
surviving fraction ([4]; 50 nM): 1.11 ± 0.064
surviving fraction ([4]; 100 nM): 1.08 ± 0.094
surviving fraction ([4]; 500 nM): 1 ± 0.028
surviving fraction ([4]; 1000 nM): 1.02 ± 0.018
area under dose-response curve [5]: 2.54
area under dose-response curve [6]: 0.746
area under dose-response curve [7]: 3.43
area under dose-response curve [8]: 0.895
area under dose-response curve [9]: 0.956
area under dose-response curve [10]: 3.49
area under dose-response curve [11]: 2.32
area under dose-response curve [12]: 3.39
